The results in this text go back to patent publication US20180310564A1, “Mesoionic Compound” (Nippon Kayaku Kabushiki Kaisha, priority 2015, published 2018).

What all share (type): in vivo
Assay [1] deals with Cotton Aphid (Aphis gossypii). As to the kind of experiment: Test (foliar spraying) for controlling cotton aphid. As to conditions: 120 h, 5 days after treatment; for mortality at 200 ppm: foliar spraying on cucumber leaf. How it is done: A cucumber leaf cut to a diameter of 3.5 cm was placed on cotton wool moistened with water. Two adult cotton aphids were released there for offspring for 24 hours and the adult insects were then removed. […] After air-drying, the sample with cotton wool was placed in a plastic cup, which was covered with a lid and kept in a chamber at a constant temperature of 25° C. for rearing.

For assay [2], the system named is Sweetpotato whitefly (Bemisia tabaci). The assay is described as follows: Test (foliar spraying) for controlling sweetpotato whitefly. As to conditions: 120 h, foliar spraying on cucumber leaf, female adults, 5 days after treatment. How it is done: A cucumber leaf cut to a diameter of 6.0 cm was placed on cotton wool moistened with water. The diluent of the test compounds diluted to 200 ppm in an amount of 2 mL was sprayed onto the cucumber leaves with a spray tower. After air-drying, the cucumber leaf was placed in a plastic cup, and 20 female adult sweetpotato whiteflies were released there. The cup was covered with a lid and kept in a chamber at a constant temperature of 25° C. for rearing.

Assay [3] has as its system Diamondback Moth (Plutella xylostella). As to the kind of experiment: Test (foliar dipping) for controlling diamondback moth. To be noted: 72 h, foliar dipping of cabbage leaf, third instar larvae, 3 days after treatment. How it is done: A cabbage leaf cut to a diameter of 5.0 cm was dipped in the diluent of the test compounds diluted to 200 ppm in an amount of 20 mL and air-dried. After air-drying, the cabbage leaf was placed in a plastic cup, and 10 larvae of diamondback moths in the third instar larva were released there. The cup was covered with a lid and kept in a chamber at a constant temperature of 25° C. for rearing.

The subject of assay [4] is Brown Planthopper (Nilaparvata lugens). The assay is described as follows: Test (foliar dipping) for controlling brown planthopper. To be noted: 120 h, rice seedlings dipped, 5 days after treatment; for mortality at 200 ppm: third instar larvae. As for the experimental part: […] After air-drying, the rice seedlings held with urethane in a glass cylinder having an inner diameter of 4.5 cm and a length of 14 cm were set up in a plastic cup containing 40 mL of water. Larvae of brown planthoppers in the third instar larva were released there. The cylinder was covered with a lid of medicine paper and kept in a chamber at a constant temperature of 25° C. for rearing.

Assay [5] deals with Southern Yellow thrips (Thrips palmi). As to the kind of experiment: Test (foliar spraying) for controlling southern yellow thrips. To be noted: 72 h; 200 ppm, foliar spraying on cucumber leaf, first instar larvae, 3 days after treatment. As for the experimental part:
A cucumber leaf cut to a diameter of 1.5 cm was placed on cotton wool moistened with water. […] After air-drying, 5 larvae of southern yellow thrips in the first instar larva were released there. The sample with cotton wool was placed in a plastic cup, which was covered with a lid and kept in a chamber at a constant temperature of 25° C. for rearing.

For assay [6], the system named is Brown Planthopper (Nilaparvata lugens). As to the kind of experiment: Test (root dipping) for controlling brown planthopper. As to conditions: 120 h, root dipping, 5 days after treatment. As for the experimental part: Ten sampled rice seedlings held with urethane in a glass cylinder having an inner diameter of 4.5 cm and a length of 14 cm were set up in a plastic cup containing 40 mL of chemical solution diluted to a desired concentration. After 2 days, 10 larvae of brown planthoppers in the third instar larva were released in the glass cylinder. The glass cylinder was covered with a lid of medicine paper and kept in a chamber at a constant temperature of 25° C. for rearing.

Assay [7] relates to Rice Leaf Beetle (Oulema oryzae). The assay is described as follows: Test (root dipping) for controlling rice leaf beetle. To be noted: 4 days after treatment. As for the experimental part:
Ten sampled rice seedlings held with urethane in a glass cylinder having an inner diameter of 4.5 cm and a length of 14 cm were set up in a plastic cup containing 40 mL of chemical solution diluted to a desired concentration. After 2 days, 4 larvae of rice leaf beetle in the late instar larva were released in the glass cylinder. The glass cylinder was covered with a lid of medicine paper and kept in a chamber at a constant temperature of 25° C. for rearing.

For assay [8], the system named is Rice Stem Borer (Chilo suppressalis). As to the kind of experiment: Test (pot test) for controlling rice stem borer. As to conditions: 14 days after treatment. How it is done:
The roots of five sampled rice seedlings were washed with water. The wettable powder prepared in accordance with Formulation Example 2 described above was wrapped in the roots to be planted in a Wagner pot of 1/10000 a. After 4 days from the treatment, a total of […] of rice stem borer were released per strain and reared in a plastic greenhouse with a room temperature set at 25° C. On 14 days after the treatment, the ratio of browning stem of seedlings for each strain and the ratio to untreated ones were calculated. Double system.

In assay [9] the test system is Inedorooimushi (Oulema oryzae). As to the kind of experiment: Test (pot test) for controlling inedorooimushi. As to conditions: larvae released 20 days after treatment, 2 days after release. How it is done:
The roots of five sampled rice seedlings were washed with water. The wettable powder prepared in accordance with Formulation Example 2 described above was wrapped in the roots to be planted in a Wagner pot of 1/10000 a. After 20 days from the treatment, 3 larvae of inedorooimushi in the late instar larva were released per strain and reared in a plastic greenhouse with a room temperature set at 25° C. On 2 days after the releasing of the insects, the mortality of the insect was calculated.

The test system of assay [10] is Brown Planthopper (Nilaparvata lugens). As to the kind of experiment: Residual effect test (field experiment) for brown planthopper. As for the experimental part:
The roots of five sampled rice seedlings were washed with water. Subsequently, 25 mg of the wettable powder prepared in accordance with Formulation Example 2 described above was wrapped in the roots. Each strain was made from the five seedlings. In outdoor artificial paddy fields made from wooden frames having a size of 60 cm by 90 cm, 10 strains were planted, respectively. The artificial paddy field was shielded by an insect screen with a mesh size of 1 mm, so that invasion of harmful insects from the outside was prevented. Into the test system, 40 to 100 adult brown planthoppers were released at fixed intervals so as to cause damage to the rice. On 16 to 51 days after the treatment, the numbers of surviving insects and dead insects were measured to calculate the density index. The density index was obtained from the following expression.

Assay [11] relates to Brown Winged Green Stink Bug (Plautia stali). As to the kind of experiment: Test (greenhouse test) for controlling brown winged green stink bug. To be noted: 100 ppm sprayed on apple fruit. As for the experimental part: Using a commercially available hand spray, a chemical solution diluted to a concentration of 100 ppm was sprayed onto an apple fruit (cultivar: Fuji). After air-drying, the apple fruit was placed in a plastic cup, which was allowed to stand still for a specified number of […] in a plastic greenhouse with a room temperature set at 25° C. and with the natural light shining thereon. On 7 days after the treatment, 5 adult brown winged green stink bugs (without distinction between male and female) were released onto the treated fruit. On 4 days after the release of insects, the numbers of death and abnormality were observed and recorded. Triple system. Also, the fruit after examination was immersed in an acidic 0.5% fuchsine solution for 30 minutes, and then washed with water to measure the total number of sapping scars.

Where [12] appears, read: 5 adults released 7 days after treatment, triple system, 4 days after release.

The structures appear in SMILES notation. Where a name gives a salt, the structure may show the parent alone.

The term mortality denotes the percentage killed.

Regarding `N#CCC[n+]1c(O)c(-c2cccc(C(F)F)c2)c(=O)n2ccccc21` [Compound 48, 1-(2-cyanoethyl)-3-(3-difluoromethylphenyl)-2-hydroxy-4-oxo-4H-pyrido[1,2-a]pyrimidinium inner salt], the mortality at 200 ppm in assay [1] was not below 80%. For the same compound, the mortality at 200 ppm in assay [2] is not below 80%. Also, the mortality at 200 ppm in assay [3] was not below 80%. Also, in assay [4], the mortality at 0.01 ppm turned out to be 0%, the mortality at 0.02 ppm came out at 20%, the mortality at 0.05 ppm was determined as 100% and the mortality at 200 ppm is not below 80%.

Turning to `Cc1cccc(-c2c([O-])[n+](CCC#N)c3ccccn3c2=O)c1` [Compound 3, 1-(2-cyanoethyl)-2-hydroxy-4-oxo-3-(3-toluyl)-4H-pyrido[1,2-a]pyrimidinium inner salt], the mortality at 0.8 ppm in assay [1] (0.8 ppm, foliar spraying) came to 100%; in assay [7] (96 h, 0.8 ppm, root dipping), 100%. In addition, the mortality at 200 ppm in [1], in assay [2], in assay [3], in [4] and in assay [5] was not below 80% throughout. In assay [4], this compound gave a mortality at 0.01 ppm of 10%. The mortality at 0.02 ppm in assay [4] was 40%. Also, the mortality at 0.05 ppm in [4] was determined as 80%; in assay [6] (0.05 ppm), 60%. Besides, the mortality at 0.025 ppm in [6] (0.025 ppm) turned out to be 50%. This compound had a mortality at 0.1 ppm in [6] (0.1 ppm) of 100%. Further, in [7] (1.6 ppm, root dipping of rice seedlings, late instar larvae released after 2 days), the mortality at 1.6 ppm was determined as 100%. The “Browning stem ratio (%)” value in assay [8] (500 g/ha as wettable powder (Formulation Example 2) at rice roots, hatchlings released after 4 days) came to 0%. Besides, the “Ratio to untreated (%)” value in assay [8] (browning stem ratio relative to untreated, 500 g/ha) came out at 0%. Also, the mortality at 125 g/ha in assay [9] (125 g/ha) is 33.3%. For the same compound, the mortality at 250 g/ha in assay [9] (250 g/ha) was determined as 50%. In addition, in assay [9] (500 g/ha as wettable powder at rice roots), the mortality at 500 g/ha was 100%. Besides, the “Density index of Nilaparvata lugens” value is reported as 7.7 in assay [10] (After 16 days, 25 mg wettable powder (Formulation Example 2) at roots per strain, outdoor artificial paddy field); 0 in assay [10] (After 23 days, 25 mg wettable powder at roots per strain, artificial paddy field); 28.4 in assay [10] (After 30 days, 25 mg wettable powder at roots per strain, artificial paddy field); 23.8 in assay [10] (After 37 days, 25 mg wettable powder at roots per strain, artificial paddy field); 13.0 in assay [10] (After 44 days, 25 mg wettable powder at roots per strain, artificial paddy field); 88.5 in assay [10] (After 51 days, 25 mg wettable powder at roots per strain, artificial paddy field). The “Number of abnormal insects” value in assay [11] (setting [12]) was determined as 7. Further, the “Number of dead insects” value in assay [11] (setting [12]) was 6. Besides, in [11] (setting [12]), the “Number of normal insects” value stood at 2. The “Total number of sheaths formed by stylet insertion” value in [11] (fruit stained with fuchsine after examination) is listed as 5. Besides, the “Proportion of abnormal insects and dead insects on 4 days after releasing insects (%)” value in assay [11] (insects released 7 days after treatment) was found to be 86.7%.
